Patent publication US20030113330A1, “Methods for treating pulmonary fibrosis” (priority 1999, published 2003)
Where no end group is shown, it is not given here. The star is where a group is joined. CH2Cl = ClC*; CH2F = FC*

Tests used:
[1] = system: primary alveolar epithelial cells (AEC); assay: Bleomycin-induced apoptosis of primary AEC in vitro
Method: (§1) Lung Cell Isolation and Detection of Apoptosis In Vitro. Primary alveolar epithelial cells (AEC) were isolated from adult male Wistar rats as described above. The primary cells were studied at day two of culture, a time at which they are type II cell-like by accepted morphologic and biochemical criteria, see Paine et al., Am. J. Physiol. […] All cells were seeded in 24-well or 6-well chambers, and all experiments were conducted at subconfluent densities of 80-90% in serum-free Ham's F12 medium. Test reagents were diluted with Ham's F12 medium and were applied for 20 hours at 37° C. in a 5% CO2 incubator.
(§2) Detection of apoptotic cells with propidium iodide (PI) was conducted as described above, following digestion of ethanol-fixed cells with DNAse-free RNAse in PBS containing 5 ug/ml PI.
Apoptosis was detected as described above.

primary rat AEC [2] = assay: Angiotensin II-induced apoptosis in primary rat AEC (nuclear fragmentation, PI); assay type: cell-based; settings: ANGII 5.0 uM; saralasin 50 ug/ml, lisinopril 500 ng/ml
Text: Cell Culture. The human lung adenocarcinoma cell line A549 was obtained from American Type Culture Collection and cultured in Ham's F12 medium supplemented with 10% fetal bovine serum (FBS). Primary alveolar epithelial cells were isolated from adult male Wistar rats as described in Uhal et al., Am. J. Physiol. Suppl. (Oct.) 261:110-117 (1991) and Uhal et al., Am. J. Physiol. 269:L819-L828 (1995). The primary cells were studied at day two of culture, a time at which they are type II cell-like by accepted morphologic and biochemical criteria, see Uhal, Am. J. Physiol. 272:L1031-L1045 (1997). […] J. Physiol. Suppl. (October) 261:110-117 (1991). All cells were seeded in 24-well or 6-well chambers, and all experiments were conducted at subconfluent densities of 80-90% in serum-free Ham's F12 medium. Test reagents were diluted with Ham's F12 medium and were applied for 20 h at 37° C. in a 5% CO2 incubator.
Detection of Apoptosis. Detection of apoptotic cells with propidium iodide (PI) was conducted as described in Uhal, et al., Am. J. Physiol. 275:L1013-1017 (1998) following digestion of ethanol-fixed cells with DNAse-free RNAse in PBS containing 5 ug/ml PI. Assay of Annexin V binding by flow cytometry was performed essentially as described for human lung fibroblasts in Uhal, et al., Am. J. Physiol. 275:L998-L1005 (1998) after trypsinization of cells from culture vessels. Assay of Caspase-3 activity was performed on viable suspension cultures as reported in Uhal, et al., Am. J. Physiol. 275:L1013-1017 (1998). In all assays, detached cells were retained by centrifugation of the culture vessels during fixation with 70% ethanol, or by retention of culture media and recovery by centrifugation before assay.
For microscopy, cells were cultured on glass cover slips, incubated with test reagents and fixed with 70% ethanol. The fixed cells were immunolabeled overnight at 4° C. with monoclonal antibodies to cytokeratins 7 and 19 (Chemicon International, Temecula, Calif.), and then for one hour at 37° C. with anti-mouse IgG-rhodamine and DNAse-free RNAse (Boehringer Mannheim, Indianapolis, Ind.) The cover slips were then rinsed in distilled water three times and mounted under Fluoromount Solution (Southern Biotechnology Associates, Birmingham, Ala.) containing 5 ug/ml propidium iodide. Photomicroscopy was performed as described in Uhal, et al., Am. J. Physiol. 275:L1013-1017 (1998).
Apoptosis in alveolar epithelial cells was quantitated by fluorescence detection of chromatin condensation and nuclear fragmentation in alcohol-fixed cells stained with propidium iodide. See Uhal, et al., Am. J. Physiol. 275:L1013-1017 (1998). […] After 20 h, the culture vessel was centrifuged to retain detached cells and labeled with anticytokeratin antibodies and propidium iodide. […] Double labeling with PI and monoclonal antibodies to cytokeratins 7 and 19 identified cells with both apoptotic nuclear morphology and positive anticytokeratin immunoreactivity.

primary rat AEC [3] = settings: for inhibition of amiodarone-induced apoptosis: captopril 500 ng/ml, saralasin 50 ug/ml, Losartan 5 pg/ml, amiodarone 2.5 ug/ml for chelerythrine, orthovanadate
Method: (§3) The human lung adenocarcinoma cell line A549 (ATCC) was cultured in Ham's F12 medium supplemented with 10% fetal bovine serum (FBS). Primary alveolar epithelial cells were isolated from adult male Wistar rats. The primary cells were studied at day two of culture, a time at which they are type II cell-like by accepted morphologic and biochemical criteria. […] All cells were seeded in 24-well or 6-well chambers, and all experiments were conducted at subconfluent densities of 80-90% in serum-free Ham's F12 medium. Test reagents were diluted with Ham's F12 medium and were applied for 20 hours at 37C. in a 5% CO2 incubator.
(§4) Apoptotic cells were detected using propidium iodide (PI) following digestion of ethanol-fixed cells with DNAse-free RNAse in PBS containing 5 ug/ml PI. […] In replicate culture vessels, necrosis was detected as the loss of exclusion of PI after application of the vital dye directly to the cell culture medium at 5 ug/ml final concentration. Red fluorescent (PI-POSITIVE) cells (>570 nm) were scored over the subsequent hour as a percentage of the total cells in any given field. A minimum of 4 separate fields were scored in each of three separate culture vessels per experiment condition; all experiments were performed at least twice and the data were compiled. Although all necrotic cells are PI-positive, some apoptotic cells may also take up the dye but these comprise a minor fraction of the total dead cell population.
(§5) In all assays, detached cells were retained by centrifugation of the culture vessel at 300×g for 10 minutes with a centrifuge rotor designed for culture plates. For detection of necrosis (dye exclusion of PI), the PI was added directly to the cell culture medium immediately before centrifugation of the culture vessel. For detection of apoptosis, ethanol was added directly to the cell culture medium to a final concentration of 70% immediately before the centrifugation. Afterward, the ethanol was carefully removed and the total cell population (attached plus sedimented detached cells) were stained with PI as described above.

human A549 cells = assay type: cell-based; settings: human, 20 h
Method: (§6) The human lung adenocarcinoma cell line A549 (ATCC) was cultured in Ham's F12 medium supplemented with 10% fetal bovine serum (FBS). Primary alveolar epithelial cells were isolated from adult male Wistar rats. The primary cells were studied at day two of culture, a time at which they are type II cell-like by accepted morphologic and biochemical criteria. All primary cell preparations were of better than 90% purity assessed by acridine orange staining. All cells were seeded in 24-well or 6-well chambers, and all experiments were conducted at subconfluent densities of 80-90% in serum-free Ham's F12 medium. Test reagents were diluted with Ham's F12 medium and were applied for 20 hours at 37C. in a 5% CO2 incubator.
Apoptotic cells were detected using propidium iodide (PI) following digestion of ethanol-fixed cells with DNAse-free RNAse in PBS containing 5 ug/ml PI. […] In replicate culture vessels, necrosis was detected as the loss of exclusion of PI after application of the vital dye directly to the cell culture medium at 5 ug/ml final concentration. Red fluorescent (PI-POSITIVE) cells (>570 nm) were scored over the subsequent hour as a percentage of the total cells in any given field. A minimum of 4 separate fields were scored in each of three separate culture vessels per experiment condition; all experiments were performed at least twice and the data were compiled. […]

[4] = system: primary cultures of rat AEC; assay type: cell-based; settings: male, Wistar, rat, 20 h
Method: as §6

A549 cells [5] = settings: human, 20 h
Method: as §3, §4, §5

A549 cells [6] = assay: Amiodarone-induced net cell loss in A549 cultures; assay type: cell-based, human; settings: 20 hours exposure
Method: (§7) Primary alveolar epithelial cells were isolated from adult male Wistar rats. The primary cells were studied at day two of culture, a time at which they are type II cell-like by accepted morphologic and biochemical criteria. All primary cell preparations were of better than 90% purity assessed by acridine orange staining. All cells were seeded in 24-well or 6-well chambers, and all experiments were conducted at subconfluent densities of 80-90% in serum-free Ham's F12 medium. Test reagents were diluted with Ham's F12 medium and were applied for 20 hours at 37C. in a 5% CO2 incubator.
(§8) Importantly, unattached cells were recovered and included in the analyses, and thus the data represent true loss of cells rather than simple detachment from the substratum.

primary rat AEC [7] = assay: Amiodarone-induced net cell loss in primary rat AEC cultures; assay type: cell-based; settings: 20 hours exposure
Method: as §7, §8

primary rat AEC [8] = assay: Fas ligand-induced apoptosis of primary rat alveolar epithelial cells; assay type: cell-based; settings: captopril, lisinopril 500 ng/ml; caspase inhibitors 60 uM
Method: as §1, §2
Expression of FAS by alveolar epithelial cells is observed during bleomycin-induced fibrogenesis in mice. See Hagimoto, et al., Am. J. Respir. Cell Mol. Biol. 16:91-101 (1997). […] Apoptosis was detected by quantitation of fragmented nuclei (see above).
Cell Culture and Detection of Apoptosis. The human lung adenocarcinoma cell line A549 was obtained from American Type Culture Collection and cultured in Ham's F12 medium supplemented with 10% fetal bovine serum (FBS). Primary alveolar epithelial cells were isolated from adult male Wistar rats as described earlier (Uhal, B. D., I. Joshi, A. True, S. Mundle, A. Raza, A. Pardo and M. Selman. Fibroblasts isolated after fibrotic lung injury induce apoptosis of alveolar epithelial cells in vitro. Am. J. Physiol. 269:L819-L828, 1995); Wang, R., A. Zagariya, 0. Ibarra-Sunga, C. […] Am. J. Physiol. 276:L885-L889 (1999)). […] All cells were seeded in 24-well or 6-well chambers, and all experiments were conducted at subconfluent densities of 80-90% in serum-free Ham's F12 medium. Test reagents were diluted with serum-free Ham's F12 medium and were applied under serum-free conditions for 20 hours at 37C. in a 5% CO2 incubator. Detection of apoptotic cells with propidium iodide (PI) was conducted as described above Am. J. Physiol. 275:L1013-1017 (1998); Uhal et al., following digestion of ethanol-fixed cells with DNAse-free RNAse in PBS containing 5 μg/ml PI. In all assays, detached cells were retained by centrifugation of the culture vessels during fixation with 70% ethanol, or by retention of culture media and recovery by centrifugation before assay.
Apoptosis was detected by nuclear fragmentation as described above.

[9] = system: primary rat alveolar epithelial cells; assay: Apoptosis of rat AEC induced by human lung fibroblast-conditioned media; assay type: cell-based; settings: saralasin 50 ug/ml, DEVD-fmk 60 uM, anti-ANGII IgG 1 ug/ml
Text: Fibroblast Isolation, Culture and Preparation of Conditioned Media. Primary human lung fibroblasts were isolated at the National Institute of Respiratory Diseases, Mexico. […] Of these, “fibrotic” lung fibroblast strains (HIPF-X, where X=patient number) were derived from patients suffering from either of two different types of interstitial lung disease (ILD): Idiopathic Pulmonary Fibrosis (IPF) and Chronic Hypersensitivity Pneumonitis (CHP). In both diseases, patients had clinical, functional and radiologic features which fulfill the diagnostic criteria for an ILD. […] Briefly, all patients had progressive dyspnea, bilateral reticulonodular images on chest roentgenogram, restrictive lung functional impairment with decreased lung volumes and compliance, and hypoxemia at rest that worsened with exercise. […] Patients with IPF had neither antecedents of any occupational or environmental exposure nor other known cause of ILD. […] Biopsies lacked granulomas, vasculitis, microorganisms, and inorganic material by polarized light microscopy.
Control fibroblasts were obtained from individuals having undergone a lobectomy for removal of a primary lung tumor. […] Lung fibroblasts from normal or fibrotic tissue were isolated by trypsin dispersion, and fibroblast strains were established in Dulbecco's modified Eagle's medium (or in Ham's F-12 medium) supplemented with 10% fetal calf serum, 200 U/ml penicillin, and 200 mg/ml streptomycin. […]
Epithelial Cell Culture and Detection of Apoptosis. […] All epithelial cell preparations were greater than 90% pure as determined by acridine orange uptake into lamellar bodies. […] Epithelial cell apoptosis was detected by the assessment, under fluorescence microscopy, of chromatin condensation and nuclear fragmentation within cytokeratin-positive cells after ethanol fixation and staining with propidium iodide. […]
The percentage increase in rat AEC apoptosis was determined by propidium iodide assay of primary alveolar epithelial cells exposed to serum-free conditioned media, see Uhal et al., Am.

adult male Wistar rats = settings: 8 U/kg intratracheal, 14 days
Method: Adult male Wistar rats were given intratracheal instillations of 8 U/kg bleomycin sulfate (BLEO) or sterile saline. […] Lung fibrosis was assessed by picrosirius red (PR) quantitation of lung collagen and by hydroxyproline (HP) assay at 14 days after BLEO administration. At the same time point, fragmented DNA in lung epithelial cells was detected by in situ end labeling (ISEL).
Animals and Induction of Pulmonary Fibrosis. Forty adult male Wistar rats, 175-200 grams, were divided into four groups; three groups received a single intratracheal instillation of 8 units per kilogram of bleomycin sulfate (BLEO) in sterile saline. Two days before the administration of BLEO, one group received captopril in the drinking water at a concentration of 500 mg/liter. […] Control animals (NORM) received administrations of the vehicles only.
Immediately before sacrifice, animals were given intraperitoneal injections of sodium pentobarbital and the trachea was cannulated. The middle right lobe was ligated at the hilus, was excised distal to the ligation and was immediately frozen in liquid N2 for hydroxyproline assay of total collagen (see below). The remaining lung tissues were carefully removed and were instilled with 4% paraformaldehyde in PBS at 20 cm H2O constant pressure, then immersed in the same fixative for two hours. The fixed tissues were washed with PBS three times for 15 minutes and were then embedded in paraffin. Five-micron sections of lung were deparaffinized by passing through xylene, xylene:alcohol 1:1, 100% alcohol and 70% alcohol for 10 minutes each. Ethanol was removing by rinsing with distilled water.
In situ end-labeling (ISEL) of fragmented DNA. ISEL was conducted by a modification of the method of Mundle et al., Cell Death and Differentiation, 1: 117-122 (1994). Briefly, ethanol was removed from deparaffinized lung sections by rinsing in distilled water for at least 10 minutes. The slides were then placed in 3% hydrogen peroxide (Sigma Chemical, St. Louis, Mo.) for 30 minutes at 20° C., rinsed with PBS, and incubated with Proteinase K (Sigma Chemical, St. Louis, Mo.) in saline sodium citrate solution (SSC) (0.3 M NaCi and 30 mM sodium citrate in water, pH 7.0) for 15 minutes at 37° C. Samples were rinsed once in water, three times in 0.15 M PBS for 4 minutes each, and then incubated in SSC at 80° C. for 20 minutes. After four rinses in PBS and four rinses in Buffer A (50 mM Tris/HCl, 5 mM MgCl, 10 mM β-mercaptoethanol and 0.005% BSA in water, pH 7.5), the sections were incubated at 18° C. for two hours with ISEL solution (0.001 mM digoxigenin-dUTP, 20 U/ml DNA Polymerase 1 and 0.01 mM each of dATP, dCTP and dGTP in Buffer A). The sections were then rinsed thoroughly five times with Buffer A and three times with PBS. Detection of incorporated dUTP was achieved by incubation for two hours at 37° C. with AP-conjugated anti-digoxigenin (Boerhinger Mannheim, Indianapolis, Ind.) at a 1:400 dilution. Bound AP-antibody complexes were detected with the Fast Blue chromogen system and the sections were mounted with Fluoromount Solution (Southern Biotechnology, Birmingham, Ala.).
Identification of Collagen. Collagens were localized through staining of lung sections by the picrosirius red technique, see Pick et al., Am. J. Pathol. 134:365-371 (1989), which has absolute specificity for collagen. Briefly, sections deparaffinized with xylenes were rehydrated through a descending series of ethanols to distilled water. The hydrated sections were immersed in 0.2% aqueous phosphomolybdic acid for 2 minutes, rinsed in distilled water and then stained for 110 minutes with 0.1% Sirius Red F3BA (Pfal and Bauer, Stamford, Conn.) in saturated aqueous picric acid, pH 2.0. The sections were washed for 2 minutes in 0.01 N HCl, rinsed for 45 seconds in 70% ethanol, dehydrated in three changes of absolute alcohol, cleared in xylene and mounted in a nonaqueous mounting medium.

## O=C(O)C1=CC(=C(c2ccc(O)c(C(=O)O)c2)c2ccc(O)c(C(=O)O)c2)C=CC1=O [aurintricarboxylic acid]
[1]; Rattus norvegicus, Epithelial cell, read-out: inhibition of bleomycin-induced apoptosis of AEC in vitro
  inhibition at 10 µM: 59%

## COc1ccc2c(c[n+](C)c3c4cc5c(cc4ccc23)OCO5)c1OC [chelerythrine]
Primary rat AEC [2]
  inhibition of ANGII-induced apoptosis of primary rat AEC: significantly inhibited
Primary rat AEC [3]
  inhibition of amiodarone-induced apoptosis: significantly inhibited

## CCCCc1oc2ccccc2c1C(=O)c1cc(I)c(OCCNCC)c(I)c1 [desethylamiodarone]
Human A549 cells
  concentration at which necrosis / significant cell death begins: 5 µg/mL
[4]
  concentration at which significant cell death / toxicity begins: 0.1 µg/mL
  cytotoxicity at the higher doses: ~100%
A549 cells [5]
  concentration at which apoptosis begins: 5 µg/mL
Primary rat AEC [3]; male, Wistar, rat, 20 h
  concentration at which significant apoptosis begins: 2.5 µg/mL
A549 cells [6]
  effect on total cell number: significantly decreased
Primary rat AEC [7]
  effect on total cell number: significantly decreased

## [Na+].[Na+].[Na+].[O]=[V]([O-])([O-])[O-] [sodium orthovanadate]
Primary rat AEC [3]
  inhibition of amiodarone-induced apoptosis: not

## Asp-Glu-Val-Asp-[O-Me]-CH2F (DEVD(OMe)-CH2F; not fully specified; printed as Asp-Glu-Val-Asp-[O-Me]-CH2F) [DEVD-fmk]
Primary rat AEC [8]
  inhibition of Fas ligand-induced apoptosis of primary rat AEC (words): comparable efficacy to inhibit apoptosis
[9]
  inhibition of apoptosis induced by HIPF-conditioned media: completely abrogated

## Tyr-Val-Ala-Asp-[O-Me]-CH2Cl (YVAD(OMe)-CH2Cl; not fully specified; printed as Tyr-Val-Ala-Asp-[O-Me]-CH2Cl) [YVAD-cmk]
Primary rat AEC [8]
  inhibition of Fas ligand-induced apoptosis of primary rat AEC (words): comparable efficacy to inhibit apoptosis

## bleomycin sulfate
Adult male Wistar rats
  increase in alveolar septal collagen (picrosirius red): 100%
  increase in peribronchial collagen (picrosirius red): 133%
[1]; 20 h
  concentration at which induction of apoptosis was statistically significant: 5 µM
